According to patent US5340818A, “Methods and compositions for inhibiting tumor cell growth” (priority 1993, dated 1994):
Several values for one entry are separate records, joined by “and”; a condition that tells them apart may be missing. Equal entries are not always repeated. Entries after “also recorded” stand apart in the source; their conditions may differ. Where two headings read alike, the source gives them in different places.

Tests used:
[1] = test system: DNA synthesis in HL-60 cells; experiment: Inhibition of [3H-methyl]dThd incorporation into DNA of HL-60 cells; format: cell-based, human; conditions: Homo sapiens, HL-60, at 0.03 mg/mL; read-out: % Inhibition of Precursor Incorporation, DNA
How it was run: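 HL-60 cells, 2.2×10^6 /ml, preincubated 15 min with compound in 0.3% DMSO, then 30 min with [3H-methyl]dThd (1 μCi, 0.15 nmole/ml). DNA incorporation compared with DMSO-only control.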

[2] = test system: RNA synthesis in HL-60 cells; experiment: Inhibition of [5-3H]Cyd incorporation into RNA of HL-60 cells; format: cell-based, human; conditions: Homo sapiens, HL-60, 0.5 h
How it was run: (§1)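 HL-60 cells (2.2×10^6/ml) preincubated 15 min with compound (0.03 mg/ml, 0.3% DMSO), then 30 min with [5-3H]Cyd (5 μCi, 0.23 nmol/ml) for RNA or [2,3,4,5-3H]L-Leu (0.5 μCi, 0.004 nmol/ml) for protein. Inhibition relative to DMSO-only incorporation.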

[3] = test system: protein synthesis in HL-60 cells; experiment: Inhibition of [2,3,4,5-3H]L-Leu incorporation into protein of HL-60 cells; format: cell-based, human; conditions: Homo sapiens
How it was run: as §1

[4] = test system: HL-60 cells; experiment: HL-60 cell growth inhibition, 72 h; format: cell-based, human; conditions: HL-60, 72 h; for IC50: read-out: Cell Growth Inhibition, IC50
How it was run: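 HL-60 cells seeded at 1.5×10^5/ml in RPMI 1640, exposed 72 h at 37° C, 5% CO2 to compound at 0.0025-0.05 mg/ml in 0.1% DMSO. Viable cells counted by trypan blue exclusion; IC50 from median-effect analysis over three to five dose levels versus DMSO control.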

[5] = test system: Lewis lung carcinoma; experiment: Lewis lung carcinoma survival time evaluation in C57BL/6 mice; format: in vivo, mouse; parameters: Survival Time, individual mice / AST (average survival time): unit not given here; conditions: for AST (average survival time) / Day #7 AWC (average weight change) / N/T (29 day survivors/total mice) / Survival Time, individual mice / % ILS (increase in lifespan): day 1, QDX4 ip; for % ILS (increase in lifespan): 25% or greater indicates activity
Source text: Tumor-Lewis Lung C. 3 × 10^5 cells (ip) in C57BL/6, FEM, 19-21
(§2) Diluent-CMC + 1 drop Tween 80
(§3) Schedule: Day 1, QDX4 (ip)

[6] = test system: Carcinoma EO771; experiment: Carcinoma EO771 (E07713 mammary adenocarcinoma) survival time evaluation in C57BL/6 mice; format: in vivo
Source text: Tumor-Carcinoma EO771 3 × 10^5 cells (ip) in C57BL/6, FEM,
as §2, §3

[7] = test system: B-16 Melanoma; experiment: B-16 melanoma in mice; format: in vivo, mouse; conditions: day 1 QDX4
Source text: Chemotherapeutic Effects of Acronycine and TSA-35 against Solid

[8] = test system: B82 leukemia; conditions: ip, 37.5 × 1 × 7 mg/kg/day; cited from earlier work
[9] = test system: L1210/Dx cells; experiment: Cross-resistance studies: growth inhibition of doxorubicin-resistant L1210/Dx cells; format: cell-based
[10] = Table 8, 25 mg/kg ip, day 1 QDX4
[11] = Table 8, 50 mg/kg ip, day 1 QDX4
[12] = Table 8, 100 mg/kg ip, day 1 QDX4
[13] = Table 8, 150 mg/kg ip, day 1 QDX4

SMILES: COc1cc2c(c3c1c(=O)c1ccccc1n3C)C=CC(C)(C)O2 [Compound 1, Acronycine]
- inhibition at 30 µg/mL [1]: ~90%
- inhibition at 30 µg/mL ([2]; read-out: % Inhibition of Precursor Incorporation, RNA, at 0.03 mg/mL): 21.3%
- inhibition at 30 µg/mL ([3]; HL-60, read-out: % Inhibition of Precursor Incorporation, Protein, at 0.03 mg/mL): 25.4%
- cell growth inhibition, in words [4]: significantly active
- AST (average survival time) ([5]; 25 mg/kg): 14.6
- Day #7 AWC (average weight change) ([5]; 25 mg/kg): -0.6 g
- N/T (29 day survivors/total mice) ([5]; 25 mg/kg): 0/5
- Survival Time, individual mice ([5]; 25 mg/kg): 14 and 17
- % ILS (increase in lifespan) ([5]; 25 mg/kg): 40%
- AST (average survival time) ([5]; 50 mg/kg): 14.6
- Day #7 AWC (average weight change) ([5]; 50 mg/kg): -0.8 g
- N/T (29 day survivors/total mice) ([5]; 50 mg/kg): 0/5
- Survival Time, individual mice ([5]; 50 mg/kg): 14 and 15
- % ILS (increase in lifespan) ([5]; 50 mg/kg): 40%
- % ILS [5, 10]: 40%
- Day 7 BWC (body weight change) [5, 10]: -0.6 g
- N/T (40 day tumorfree mice/total) [5, 10]: 0/5
- % ILS [5, 11]: 34%
- Day 7 BWC (body weight change) [5, 11]: -0.5 g
- N/T (40 day tumorfree mice/total) [5, 11]: 0/15
- N/T (40 day tumorfree mice/total) [5, 12]: 0/5
- death [5, 12]: 5/5
- AST (average survival time) ([6]; 50 mg/kg, day 1, QDX4 ip): 13.4
- Day #7 AWC (average weight change) ([6]; 50 mg/kg, day 1, QDX4 ip): +0.4 g
- N/T (22 day survivors/total mice) ([6]; 50 mg/kg, day 1, QDX4 ip): 0/5
- Survival Time, individual mice ([6]; 50 mg/kg, day 1, QDX4 ip): 11 and 14 and 17
- % ILS (increase in lifespan) ([6]; 50 mg/kg, day 1, QDX4 ip, 25% or greater indicates activity): 26%
- toxicity induced deaths ([6]; 100 mg/kg daily for 4 days ip): 1 out of 3
- AST (average survival time) ([6]; 100 mg/kg, day 1, QDX4 ip): 11.0
- Day #7 AWC (average weight change) ([6]; 100 mg/kg, day 1, QDX4 ip): +0.5 g
- N/T (22 day survivors/total mice) ([6]; 100 mg/kg, day 1, QDX4 ip): 0/3
- % ILS (increase in lifespan) ([6]; 100 mg/kg, day 1, QDX4 ip, 25% or greater indicates activity): 4%
- Survival Time, individual mice ([6]; 100 mg/kg, day 1, QDX4 ip, t = died of toxicity): 4t and 10 and 12
- % ILS [6, 11]: 26%
- Day 7 BWC (body weight change) [6, 11]: +0.4 g
- N/T (40 day tumorfree mice/total) [6, 11]: 0/5
- % ILS [6, 12]: 4%
- N/T (40 day tumorfree mice/total) [6, 12]: 0/3
- death [6, 12]: 1/3
- % ILS ([7]; 50 mg/kg ip): 24%
- Day 7 BWC (body weight change) ([7]; 50 mg/kg ip): -0.6 g
- N/T (40 day tumorfree mice/total) ([7]; 50 mg/kg ip): 0/5
- Percent activity [8]: 61%

SMILES: COc1c(OC)c(OC)c2c(c1O)c(=O)c1ccc(O)c(OC)c1n2C [Compound 31, Glyfoline]
- inhibition at 30 µg/mL [1]: 93.5%
- inhibition at 30 µg/mL ([2]; at 0.03 mg/mL, read-out: % Inhibition of Precursor Incorporation, RNA): 65.7%
- inhibition at 30 µg/mL ([3]; HL-60, at 0.03 mg/mL, read-out: % Inhibition of Precursor Incorporation, Protein): 90.7%
- Cell Growth Inhibition, IC50 [4]: 0.4 µg/mL
- cell growth inhibition, in words [4]: most potent compound in this series; also recorded: significant activity against leukemic cells in vitro
- IC50 [4]: 1110 nM
- IC50 ([4]; Homo sapiens): 0.4 µg/mL and 1.1 µM
- AST (average survival time) ([5]; 25 mg/kg): 14.8
- N/T (29 day survivors/total mice) ([5]; 25 mg/kg): 0/5
- % ILS (increase in lifespan) ([5]; 25 mg/kg): 42%
- Survival Time, individual mice ([5]; 25 mg/kg, listed as TSA-35): 14 and 18
- AST (average survival time) ([5]; 50 mg/kg): > 20
- N/T (29 day survivors/total mice) ([5]; 50 mg/kg): 2 out of 5
- % ILS (increase in lifespan) ([5]; 50 mg/kg): > 92%
- N/T (29 day survivors/total mice) ([5]; 50 mg/kg, listed as TSA-35): 2/5
- Survival Time, individual mice ([5]; 50 mg/kg, listed as TSA-35): 14 and > 29
- % ILS [5, 10]: 42%
- N/T (40 day tumorfree mice/total) [5, 10]: 0/5
- % ILS [5, 11]: > 59%
- N/T (40 day tumorfree mice/total) [5, 11]: 2/15
- % ILS [5, 12]: > 46%
- N/T (40 day tumorfree mice/total) [5, 12]: 1/10
- % ILS [5, 13]: > 79%
- N/T (40 day tumorfree mice/total) [5, 13]: 2/8
- toxicity to mice, in words ([5]; mouse, in vivo): less toxicity to mice than that of compound 1
- Day 7 BWC (body weight change) ([5]; mouse, in vivo, ip, 25 mg/kg): +0.2 g
- Day 7 BWC (body weight change) ([5]; mouse, in vivo, ip, 50 mg/kg): +0.3 g
- Day 7 BWC (body weight change) ([5]; mouse, in vivo, ip, 100 mg/kg): +0.5 g
- Day 7 BWC (body weight change) ([5]; mouse, in vivo, ip, 150 mg/kg): -0.3 g
- AST (average survival time) ([6]; 50 mg/kg, day 1, QDX4 ip): 12.4
- N/T (22 day survivors/total mice) ([6]; 50 mg/kg, day 1, QDX4 ip): 0/5
- Survival Time, individual mice ([6]; 50 mg/kg, day 1, QDX4 ip, listed as TSA-35): 10 and 11 and 12 and 14 and 15
- AST (average survival time) ([6]; 100 mg/kg, day 1, QDX4 ip): > 15
- N/T (22 day survivors/total mice) ([6]; 100 mg/kg, day 1, QDX4 ip): 1/3
- Survival Time, individual mice ([6]; 100 mg/kg, day 1, QDX4 ip, t = died of toxicity, listed as TSA-35): 11 and > 22
- % ILS (increase in lifespan) ([6]; ip, 50 mg/kg, 24 h): 17%
- % ILS (increase in lifespan) ([6]; ip, 100 mg/kg, 24 h): > 39%
- toxicity induced deaths ([6]; mouse, in vivo): no deaths
- Day 7 BWC (body weight change) ([6]; mouse, in vivo, ip, 25 mg/kg): +0.6 g
- Day 7 BWC (body weight change) ([6]; mouse, in vivo, ip, 50 mg/kg): +0.3 g
- % ILS ([7]; 25 mg/kg ip): 31%
- N/T (40 day tumorfree mice/total) ([7]; 25 mg/kg ip): 0/5
- % ILS ([7]; 50 mg/kg ip): 40%
- N/T (40 day tumorfree mice/total) ([7]; 50 mg/kg ip): 0/5
- % ILS ([7]; 150 mg/kg ip): > 56%
- N/T (40 day tumorfree mice/total) ([7]; 150 mg/kg ip): 1/5
- (IC50) 0/(IC50) Dx ([9]; L1210/0 and L1210/Dx): 1.58
- IC50 ([9]; Mus musculus, L1210/Dx (doxorubicin resistant)): 3310 nM
